This note sets out measurements from the supplement of paper PMC12463676, “Small-molecule dissolution of stress granules by redox modulation benefits ALS models” (Nature Chemical Biology, 2025).

Compound in assay [1]: NC(=O)CCCCC1CCSS1 [lipoamide]
Description: thermal stability z-score vs DMSO; higher = more thermally stabilized by treatment. The following applies: HeLa, lipoamide concentration 100 µM. The procedure: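 Cellular thermal proteome profiling in HeLa cells. Cells were treated with 100 µM lipoamide for 1 h, with or without 1 mM arsenate for a further 1 h, then heated to ten temperatures (37-66.3 °C), and soluble protein was quantified by TMT mass spectrometry relative to 0.1% DMSO controls. The thermal stability score (sum of log2 fold changes minus the abundance score) was transformed to a z-score; mean of n = 3 experiments.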

Compound in assay [2]: O=[As]([O-])(O)O.[K+] [potassium arsenate]
The description is as above. The conditions noted are these: HeLa; arsenate concentration 1 mM. The procedure: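 Cellular thermal proteome profiling in HeLa cells treated with 1 mM arsenate for 1 h (DMSO pretreatment), heated to ten temperatures (37-66.3 °C). Soluble protein was quantified by TMT mass spectrometry relative to DMSO controls; the thermal stability score was transformed to a z-score; mean of n = 3 experiments.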

[3] abbreviates: arsenate co-treatment: 1 mM arsenate 1 h.
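Also: each temperature applied for 3 min, abundance score taken as mean log2 fold change at the two lowest temperatures, z-score obtained by mean subtraction and division by SD.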

UniProt P35914, sequence (P35914 whole entry): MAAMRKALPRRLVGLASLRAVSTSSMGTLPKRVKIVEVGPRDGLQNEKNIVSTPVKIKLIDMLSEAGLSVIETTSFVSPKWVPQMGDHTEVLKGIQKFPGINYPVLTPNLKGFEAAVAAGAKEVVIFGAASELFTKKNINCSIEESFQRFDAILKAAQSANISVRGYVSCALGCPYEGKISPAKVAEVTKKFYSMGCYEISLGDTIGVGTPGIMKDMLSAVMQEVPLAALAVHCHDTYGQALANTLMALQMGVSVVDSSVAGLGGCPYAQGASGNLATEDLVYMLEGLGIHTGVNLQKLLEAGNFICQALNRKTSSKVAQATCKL
UniProt P09651, sequence (P09651 whole entry): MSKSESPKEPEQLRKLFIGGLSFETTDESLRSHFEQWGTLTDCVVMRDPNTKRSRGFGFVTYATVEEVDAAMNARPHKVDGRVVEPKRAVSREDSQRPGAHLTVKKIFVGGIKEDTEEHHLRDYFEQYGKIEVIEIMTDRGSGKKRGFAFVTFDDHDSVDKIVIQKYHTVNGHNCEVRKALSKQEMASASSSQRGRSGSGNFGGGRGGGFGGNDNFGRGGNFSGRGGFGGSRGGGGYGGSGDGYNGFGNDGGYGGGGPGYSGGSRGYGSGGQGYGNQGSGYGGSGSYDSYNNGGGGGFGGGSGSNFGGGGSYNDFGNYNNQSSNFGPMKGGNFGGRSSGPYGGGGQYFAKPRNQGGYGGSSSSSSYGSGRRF
UniProt Q13151, sequence (Q13151 whole entry): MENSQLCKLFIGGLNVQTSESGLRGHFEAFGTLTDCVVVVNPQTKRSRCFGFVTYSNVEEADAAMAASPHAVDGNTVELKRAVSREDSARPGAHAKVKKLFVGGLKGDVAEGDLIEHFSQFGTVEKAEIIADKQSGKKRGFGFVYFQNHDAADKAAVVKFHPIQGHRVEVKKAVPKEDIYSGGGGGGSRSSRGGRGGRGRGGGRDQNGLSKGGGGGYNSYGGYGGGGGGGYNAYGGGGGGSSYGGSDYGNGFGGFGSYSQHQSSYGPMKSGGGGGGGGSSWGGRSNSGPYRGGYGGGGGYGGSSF
UniProt P26583, sequence (P26583 whole entry): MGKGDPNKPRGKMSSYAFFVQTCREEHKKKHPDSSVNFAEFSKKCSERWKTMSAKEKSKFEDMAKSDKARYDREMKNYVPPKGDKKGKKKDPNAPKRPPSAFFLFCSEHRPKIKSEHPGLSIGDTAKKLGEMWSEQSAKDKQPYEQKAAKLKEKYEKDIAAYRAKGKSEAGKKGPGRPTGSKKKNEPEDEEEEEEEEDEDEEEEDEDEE
UniProt Q9UK76, sequence (Q9UK76 whole entry): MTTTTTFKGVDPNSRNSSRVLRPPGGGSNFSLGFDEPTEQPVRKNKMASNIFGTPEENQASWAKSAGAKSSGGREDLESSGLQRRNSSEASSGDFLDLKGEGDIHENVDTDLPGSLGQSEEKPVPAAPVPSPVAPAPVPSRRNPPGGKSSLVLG
UniProt P09601, sequence (P09601 whole entry): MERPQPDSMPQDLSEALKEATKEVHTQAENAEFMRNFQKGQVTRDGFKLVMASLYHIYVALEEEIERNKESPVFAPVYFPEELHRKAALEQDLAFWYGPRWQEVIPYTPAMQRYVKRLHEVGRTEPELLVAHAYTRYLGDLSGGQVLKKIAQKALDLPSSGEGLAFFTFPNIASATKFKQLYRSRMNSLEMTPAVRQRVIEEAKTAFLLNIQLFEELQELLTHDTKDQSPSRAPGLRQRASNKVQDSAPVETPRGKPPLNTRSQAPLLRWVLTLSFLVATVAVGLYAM
UniProt P22626, sequence (P22626 whole entry): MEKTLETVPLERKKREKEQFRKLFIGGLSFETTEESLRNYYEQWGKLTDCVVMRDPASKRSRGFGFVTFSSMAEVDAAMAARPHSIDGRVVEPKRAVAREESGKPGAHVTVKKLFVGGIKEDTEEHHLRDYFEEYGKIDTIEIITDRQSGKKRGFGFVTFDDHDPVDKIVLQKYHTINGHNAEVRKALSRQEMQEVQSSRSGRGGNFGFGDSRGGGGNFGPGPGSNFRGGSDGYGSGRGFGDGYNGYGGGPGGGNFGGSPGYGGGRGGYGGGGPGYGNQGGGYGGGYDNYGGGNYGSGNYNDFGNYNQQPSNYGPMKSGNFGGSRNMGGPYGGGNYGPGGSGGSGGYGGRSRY
UniProt P08397, sequence (P08397 whole entry): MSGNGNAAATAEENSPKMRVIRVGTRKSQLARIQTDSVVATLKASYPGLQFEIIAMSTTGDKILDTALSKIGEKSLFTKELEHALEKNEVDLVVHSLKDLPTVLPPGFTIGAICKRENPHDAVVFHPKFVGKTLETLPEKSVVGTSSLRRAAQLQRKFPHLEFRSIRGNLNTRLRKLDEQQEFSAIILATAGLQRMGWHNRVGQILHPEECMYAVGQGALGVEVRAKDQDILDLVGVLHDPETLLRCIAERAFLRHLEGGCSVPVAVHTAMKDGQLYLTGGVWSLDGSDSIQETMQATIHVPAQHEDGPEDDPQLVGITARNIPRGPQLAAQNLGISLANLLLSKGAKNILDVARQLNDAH
UniProt P30519, sequence (P30519 whole entry): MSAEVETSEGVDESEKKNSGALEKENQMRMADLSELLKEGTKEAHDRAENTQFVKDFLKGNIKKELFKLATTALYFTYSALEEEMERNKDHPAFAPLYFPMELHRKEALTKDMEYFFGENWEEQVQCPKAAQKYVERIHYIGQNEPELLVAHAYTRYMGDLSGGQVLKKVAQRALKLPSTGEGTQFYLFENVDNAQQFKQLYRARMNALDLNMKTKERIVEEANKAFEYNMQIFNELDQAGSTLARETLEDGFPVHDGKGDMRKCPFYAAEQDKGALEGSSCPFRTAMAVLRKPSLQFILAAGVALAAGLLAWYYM
UniProt O75330, sequence (O75330 whole entry): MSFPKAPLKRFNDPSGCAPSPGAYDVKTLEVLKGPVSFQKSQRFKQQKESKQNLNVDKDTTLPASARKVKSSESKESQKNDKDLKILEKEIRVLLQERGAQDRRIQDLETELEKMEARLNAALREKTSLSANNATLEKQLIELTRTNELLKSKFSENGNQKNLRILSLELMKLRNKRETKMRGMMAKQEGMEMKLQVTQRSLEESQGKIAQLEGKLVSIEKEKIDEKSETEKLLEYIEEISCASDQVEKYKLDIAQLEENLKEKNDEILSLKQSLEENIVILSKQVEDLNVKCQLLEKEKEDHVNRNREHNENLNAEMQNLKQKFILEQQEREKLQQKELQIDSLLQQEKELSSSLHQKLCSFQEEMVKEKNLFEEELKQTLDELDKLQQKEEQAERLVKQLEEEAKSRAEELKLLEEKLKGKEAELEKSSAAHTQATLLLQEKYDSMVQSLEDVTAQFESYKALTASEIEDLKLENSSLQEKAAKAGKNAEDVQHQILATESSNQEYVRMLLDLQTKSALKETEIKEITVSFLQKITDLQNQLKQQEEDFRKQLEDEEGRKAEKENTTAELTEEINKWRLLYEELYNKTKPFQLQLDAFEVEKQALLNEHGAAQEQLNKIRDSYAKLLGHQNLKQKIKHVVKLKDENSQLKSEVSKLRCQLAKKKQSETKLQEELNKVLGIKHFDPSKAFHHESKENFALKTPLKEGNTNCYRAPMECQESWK
UniProt P51991, sequence (P51991 whole entry): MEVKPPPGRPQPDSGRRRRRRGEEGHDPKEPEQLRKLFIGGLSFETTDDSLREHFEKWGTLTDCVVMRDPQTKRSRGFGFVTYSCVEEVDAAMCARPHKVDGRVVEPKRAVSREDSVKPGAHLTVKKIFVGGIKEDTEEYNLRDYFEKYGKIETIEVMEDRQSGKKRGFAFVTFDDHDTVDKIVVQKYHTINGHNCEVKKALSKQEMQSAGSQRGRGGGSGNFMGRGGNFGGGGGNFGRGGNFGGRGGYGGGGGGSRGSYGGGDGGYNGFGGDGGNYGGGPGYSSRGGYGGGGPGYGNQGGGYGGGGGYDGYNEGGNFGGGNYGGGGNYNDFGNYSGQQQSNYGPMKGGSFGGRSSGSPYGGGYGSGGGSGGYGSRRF
UniProt Q9P0W2, sequence (Q9P0W2 whole entry): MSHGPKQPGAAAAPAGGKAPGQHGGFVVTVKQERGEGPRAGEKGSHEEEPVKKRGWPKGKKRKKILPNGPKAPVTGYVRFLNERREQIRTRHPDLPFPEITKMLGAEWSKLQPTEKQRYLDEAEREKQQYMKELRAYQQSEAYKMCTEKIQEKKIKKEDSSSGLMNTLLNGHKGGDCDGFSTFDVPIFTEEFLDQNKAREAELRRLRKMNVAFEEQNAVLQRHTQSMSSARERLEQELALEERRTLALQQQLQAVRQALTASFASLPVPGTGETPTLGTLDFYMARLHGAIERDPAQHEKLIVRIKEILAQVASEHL
UniProt Q8TCT9, sequence (Q8TCT9 whole entry): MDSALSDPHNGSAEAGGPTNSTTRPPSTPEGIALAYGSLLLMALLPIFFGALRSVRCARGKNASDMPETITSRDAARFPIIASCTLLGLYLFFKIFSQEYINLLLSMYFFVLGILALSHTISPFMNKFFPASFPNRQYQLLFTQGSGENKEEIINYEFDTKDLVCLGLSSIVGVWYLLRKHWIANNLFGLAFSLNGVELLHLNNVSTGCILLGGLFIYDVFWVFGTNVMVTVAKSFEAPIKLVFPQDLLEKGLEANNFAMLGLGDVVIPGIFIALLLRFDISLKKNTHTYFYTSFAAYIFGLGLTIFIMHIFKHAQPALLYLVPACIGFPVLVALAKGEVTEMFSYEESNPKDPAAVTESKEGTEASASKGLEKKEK
UniProt P09429, sequence (P09429 whole entry): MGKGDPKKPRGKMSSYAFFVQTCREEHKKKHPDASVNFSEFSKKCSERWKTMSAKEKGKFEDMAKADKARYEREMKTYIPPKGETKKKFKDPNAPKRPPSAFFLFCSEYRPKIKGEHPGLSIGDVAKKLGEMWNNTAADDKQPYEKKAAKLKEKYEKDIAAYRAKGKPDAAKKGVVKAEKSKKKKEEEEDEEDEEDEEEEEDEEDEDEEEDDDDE
UniProt P05114, sequence (P05114 whole entry): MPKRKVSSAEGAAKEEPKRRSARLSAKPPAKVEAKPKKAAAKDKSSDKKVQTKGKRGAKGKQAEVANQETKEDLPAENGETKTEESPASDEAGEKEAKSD

HLA: the thermal stability z-score was -0.65 in assay [1] (setting [3]), -0.217 in assay [1] (arsenate co-treatment: none) and -0.138 in assay [2].
For HLCS (UniProt P50747), in that order: -1.26, -0.885 and -0.0791.
Take HLTF (UniProt Q14527): the thermal stability z-score is -0.245 in assay [1] (setting [3]), -0.0608 in assay [1] (arsenate co-treatment: none) and -0.308 in assay [2].
For HM13 (UniProt Q8TCT9), in that order: 0.0446, -0.0484 and 0.759.
For HMBS (UniProt P08397), in that order: 0.513, 0.573 and 0.0804.
Turning to HMCES (UniProt Q96FZ2), the thermal stability z-score in assay [1] (setting [3]) is 0.164; in assay [1] (arsenate co-treatment: none), 0.254; in assay [2] it was -0.565.
The like results for HMG20A (UniProt Q9NP66) were, in that order, 0.359, -0.371 and 0.344.
The like results for HMG20B (UniProt Q9P0W2) were, in that order, -0.211, -0.0202 and 0.0621.
For HMGA1 (UniProt P17096), in that order: -0.361, 0.993 and -0.692.
On to HMGB1 (UniProt P09429), for which the thermal stability z-score in assay [1] (setting [3]) was 0.26; in assay [1] (arsenate co-treatment: none), 0.59; in assay [2], 0.309.
For HMGB2 (UniProt P26583), in that order: 0.55, 0.687 and 0.175.
For HMGB3 (UniProt O15347), in that order: 0.138, 0.323 and 0.0296.
The like results for HMGCL (UniProt P35914) were, in that order, 1.01, 0.651 and 5.41.
Turning to HMGCS1 (UniProt Q01581), the results for the thermal stability z-score in assay [1] (setting [3]), in assay [1] (arsenate co-treatment: none) and in assay [2] were 1.34, 0.0808 and 0.164, respectively.
The like results for HMGN1 (UniProt P05114) were, in that order, 0.242, 0.681 and -0.289.
Consider HMGN2 (UniProt P05204), for which the thermal stability z-score in assay [1] (setting [3]) came to 1.04; in assay [1] (arsenate co-treatment: none), 0.752; in assay [2], 0.0894.
For HMGN3 (UniProt Q15651), in that order: 1.36, 0.402 and 0.493.
For HMGN5 (UniProt P82970), in that order: -0.141, -0.134 and -0.172.
The like results for HMMR (UniProt O75330) were, in that order, -0.103, 0.233 and 0.594.
Take HMOX1 (UniProt P09601): the thermal stability z-score in assay [1] (setting [3]) was -0.0402; in assay [1] (arsenate co-treatment: none) it was -0.011; in assay [2], -0.107.
For HMOX2 (UniProt P30519), in that order: 0.676, 1.34 and 0.895.
The like results for HN1 (UniProt Q9UK76) were, in that order, 1.68, 1.13 and 0.518.
In the case of HN1L, the values for the thermal stability z-score in assay [1] (setting [3]), in assay [1] (arsenate co-treatment: none) and in assay [2] were 0.978, 0.827 and 0.214, respectively.
For HNRNPA0 (UniProt Q13151), in that order: -1.04, -0.776 and -0.778.
For HNRNPA1 (UniProt P09651), in that order: -1.06, -1.24 and -1.94.
Regarding HNRNPA2B1 (UniProt P22626), the thermal stability z-score amounted to 0.93 in assay [1] (setting [3]), 0.512 in assay [1] (arsenate co-treatment: none) and 0.0566 in assay [2].
For HNRNPA3 (UniProt P51991), in that order: 0.238, 0.437 and -0.49.
